# Measurements as given in patent US20040121474A1, “Detection and evaluation of chemically-mediated and ligand-mediated t-cell activation using optophoretic analysis” (Genoptix, Inc, priority 2002, published 2004).
# Structures can show the parent of a compound that is named as a salt. Where two headings read alike, the source gives them in different places.
# What was measured:
# [1] = test system: Chang liver cells; format: cell-based; details: human, 1 μm
# From the text: (§1) FIGS. 30A and 30B show optical interrogation of a group of cells 610 using a fast scan analysis. In this method, a moving optical gradient 612 (laser beam) in the form of a line is moved relative to the cells 610. […] Instead, an image can be taken of the cells 610 prior to the scan to determine the starting position of each cell 610. […] The distances traveled can be obtained by images taken of the cells 610 before and after the scanning process. The optical gradient 612 is moved at a speed that is higher than the escape velocity of all the cells 610 within the group. In this manner, all of the cells 610 are left behind the moving optical gradient 612. In an alternate fast scan embodiment, the cells 610 are initially lined up at a starting position A. After aligning the cells 610, the optical gradient 612 is rapidly moved and their distance of travel is measured by optical imaging. It should be understood that fast scan analysis may include multiple scans or “sweeps” of the cells 610. Generally, it has been observed that multiple scans produce larger cell movements.
# This experiment is designed to test the effect of ketoconazole on human liver cells. Ketoconazole induces toxicity in liver cells. The sample cells were Chang liver cells. The concentration of ketoconazole used to treat the cells was 1 μm. […]
# [2] = test system: Chang liver cells; assay: Escape velocity, toxicity of ketoconazole to liver cells; format: cell-based, human; details: 1 μm of ketoconazole, 1.5 hours of treatment
# Experimental: This experiment is designed to test the effect of ketoconazole on human liver cells. Ketoconazole induces toxicity in liver cells. The sample cells were Chang liver cells. The concentration of ketoconazole used to treat the cells was 1 μm. Escape velocity and fast scan protocols were applied to determine the impact, if any, of ketoconazole treatment. […] Consequently, Optophoresis was able to detect an effect on the escape velocity of treated cells within 1.5 hours of exposure to ketoconazole. FIGS. 44-45 show the fast scan results of ketoconazole-treated Chang liver cells. […] The ketoconazole-treated cells generally traveled a smaller distance as compared to the non-treated control.
# [3] = test system: Erythromycin-resistant strain; assay: Bacterial screen for drug sensitivity, escape velocity; format: cell-based, Staphylococcus aureus; details: 5 μg/ml Erythromycin
# Experimental: (§2) In this experiment, escape velocity was measured over time in wild type Staphylococcus aureus and an Erythromycin-resistant strain. 5 μg/ml of Erythromycin was applied to both the wild type Staphylococcus aureus and an Erythromycin-resistant strain. Escape velocity measurements were taken at time zero, 30 minutes post-treatment, and 3 hours post-treatment. […] In this experiment, however, escape velocity measurements were made at time zero, 30 minutes post-treatment, and 1 hour post-treatment, and 2 hours post-treatment. A reduction in escape velocity of the Erythromycin-sensitive strain can be seen at 1 hour post-treatment.
# [4] = test system: wild type Staphylococcus aureus; assay: as above; format: cell-based; details: 5 μg/ml Erythromycin
# Experimental: as §2
# [5] = test system: HL-60 cells; assay: Fast scan analysis, differentiation of HL-60 cells; format: cell-based; details: 1% DMSO
# Experimental: (§3) Fast scan analysis was also performed on HL-60 cells that were treated with PMA and DMSO. A time course evaluation of PMA treated HL-60 cells was performed with fast scan data taken at 16 hours, 24 hours, 40 hours, and 72 hours post-treatment with 400 ng/ml PMA. A control sample of HL-60 cells was also tested using EtOH as the vehicle for purposes of comparing the differentiated cells with the undifferentiated HL-60 cells. The PMA-treated and control cells were harvested and trypsinized. The samples were then resuspended in PBS/1% BSA. A set of samples was also obtained and left as pellets at 4° C. for subsequent FACS analysis.
# A time course evaluation of DMSO treated HL-60 cells was performed with fast scan data taken at 16 hours, 24 hours, 40 hours, and 70 hours post-treatment with 1% DMSO. A control sample of HL-60 cells was also tested for purposes of comparing the differentiated cells with the undifferentiated HL-60 cells. The DMSO-treated and control cells were then harvested and resuspended in PBS/1% BSA. A set of samples was also obtained and left as pellets at 4° C. for subsequent FACS analysis.
# [6] = test system: CD11b expression in HL-60 cells; assay: FACS CD11b expression profile; format: cell-based; details: 1% DMSO
# Experimental: as §3
# FIG. 145 illustrates a histogram of the travel distance of the control cells as well as the PMA-treated cells at 16 hours, 24 hours, 40 hours, and 72 hours post-treatment. FIG. 146 illustrates the mean travel distances of the control cells as well as the PMA-treated cells at 16 hours, 24 hours, 40 hours, and 72 hours post-treatment. FIG. 147 illustrates the FACS CD11b expression profile in PMA-treated HL-60 cells as well as the control. CD11b is a known marker of cellular differentiation and is expressed on the surface of differentiating cells. […] The data illustrate that Optophoretic analysis can be used as an assay for the detection and quantification of cellular differentiation. […]
# [7] = test system: U937 cells; assay: Escape velocity, PMA inhibition by bisindolymaleimide; format: cell-based; details: for Escape velocity Ave.: four hours
# From the text: The objective of this experiment was to test the effect of bisindolymaleimide on cells exposed to PMA. Bisindolymaleimide is a Protein Kinase C inhibitor and should block the effect of PMA on U937 cells and their escape velocities. As shown in this and prior experiments, exposure of U937 cells to PMA results in an increase in the escape velocity of the cells. Therefore, it is anticipated that addition of bisindolymaleimide will reduce or eliminate the increase in escape velocity caused by PMA. This has in fact been observed in the data shown below.
# Bisindolymaleimide was tested at two concentrations: 200 ng/ml and 50 ng/ml. Samples not treated with bisindolymaleimide received an equivalent amount of the carrier, MeOH, as a control. […] The concentration of PMA tested was 10 ng/ml. Samples not receiving PMA received DMSO.
# Once the flasks were prepared, they were incubated at 37° C. 5% CO2 for four hours. At the four hour timepoint, 300 μl of cells were removed from each flask and pelleted at 5000 rpm for 5 minutes. The cells were then resuspended in 6 ml PBS/1% BSA and 60 μl trypan blue.
# [8] = test system: U937 cells
# Experimental: This experiment is designed to compare the effects of two concentrations of sodium salicylate on U937 cells. Sodium salicylate was prepared at two concentrations: 20 mM and 5 mM. The escape velocities of the cells was tested at 5 hours, 24 hours and 47 hours. At each timepoint, 30 μl of sample was pelleted at 5,000 rpm for 5 minutes and then resuspended in PBS/1% BSA and trypan blue.
# [9] = test system: Jurkat cells; assay: Escape velocity, TNF-α effect on Jurkat cells; format: cell-based; details: TNF inhibitor added with TNF
# Experimental: After 48 hours of incubation, the cells were removed and centrifuged for 5 minutes at 5,000 rpm. Then the cells were resuspended in PBS/1% BSA and trypan blue. A higher power setting, 140 mW instead of 100 mW, was used for this experiment. The escape velocities were measured as follows:
# In this experiment Leflunomide and Silymarin were added with TNF to see if the anticipated increase in escape velocity measurements could be counteracted by the presence of the TNF inhibitors.
# [10] = test system: K562, BV-173, EM-3, and U-937 cells; assay: Escape velocity, effect of Gleevec; format: cell-based; details: 72 hours after exposure, all four cell types
# From the text: The U-937 cells have no copies of the gene. The K-562 line of cells has, on average, one copy of the gene per cell. The BV-173 line of cells has, on average, three copies of the gene per cell. The EM-3 cell line has, on average, five copies of the gene per cell. […] FIG. 44 illustrates the measured escape velocities (average) for each of the four cell types. […] In addition, the decrease in escape velocity for the Gleevec-treated cells was more pronounced in those cell lines that had higher copy numbers of the Bcr-Abl gene.
# [11] = test system: K-562, BV-173, EM-3, and U-937 cell lines; assay: Fast scan analysis, effect of Gleevec; format: cell-based; details: 1 μM Gleevec, 48 hours, U-937 cells excepted
# From the text: as §1
# [12] = test system: U937 cells; assay: Escape velocity, characterization of topoisomerase inhibitors
# [13] = test system: CEM/C2; details: CEM/C2 cell line obtained from ATCC; cited from earlier work
# [14] = test system: CCRF-CEM; assay: Escape velocity, topotecan on sensitive cell line; format: cell-based; details: 10 μM topotecan, 6 hours
# Experimental: In a fifth experiment, two different cell lines obtained from ATCC which have varying degrees of sensitivity to topoisomerase I inhibitors such as camptothecin and topotecan were subject to Optophoretic analysis. A group of cells from a parental cell line CCRF-CEM that is sensitive to camptothecin and topotecan were incubated for 6 hours with 10 μM topotecan. Another group of cells from the cell line CEM/C2, which are 970-fold less sensitive to camptothecin and topotecan, were also incubated for 6 hours with 10 μM topotecan. Control cells from both the CCRF-CEM and CEM/C2 cell lines were also tested. […] Escape velocity measurements were then taken using a 100 mW laser with a diameter of 28 pixels. […] Optophoretic analysis was thus able to score cross-resistance of camptothecin-resistant cell lines to topotecan, an analog of camptothecin.
compound,measurement,setting,value
CC(=O)N1CCN(c2ccc(OCC3COC(Cn4ccnc4)(c4ccc(Cl)cc4Cl)O3)cc2)CC1 (stereo not shown) [ketoconazole],mean travel distance,[1],20.97 μm
same,escape velocity vs control (FIG. 46),[2],marked decrease in escape velocity
CC[C@H]1OC(=O)[C@H](C)[C@@H](O[C@H]2C[C@@](C)(OC)[C@@H](O)[C@H](C)O2)[C@H](C)[C@@H](O[C@@H]2O[C@H](C)C[C@H](N(C)C)[C@H]2O)[C@](C)(O)C[C@@H](C)C(=O)[C@H](C)[C@@H](O)[C@]1(C)O [Erythromycin],escape velocity (FIG. 80),[3],same escape velocity as the untreated Erythromycin-sensitive strain
same,time post-treatment at which a reduction in escape velocity can be seen (FIG. 81),[4],1 h
same,change of escape velocity over time (FIG. 80),"[4]; time zero, 30 minutes, 3 hours",decreases
"C[S+](C)[O-] [DMSO, dimethylsulfoxide]",time after treatment at which a noticeable decrease of the mean travel distance was detected,[5],≤ 16 h
same,time after treatment at which a change in CD11b expression levels was detected,[6],40 h
"CN(C)CCCn1cc(C2=C(c3c[nH]c4ccccc34)C(=O)NC2=O)c2ccccc21 [Bisindolymalemide, Bisindolymaleimide]",Escape velocity Ave.,[7]; 50 ng/ml bisindolymaleimide + 10 ng/ml PMA,15.1 μm/sec
same,Escape velocity Ave.,"[7]; 50 ng/ml bisindolymaleimide, no PMA",13.9 μm/sec
same,effect on PMA-caused shift in escape velocity (FIG. 33),"[7]; 200 ng/ml BIMI for 30 minutes, then 10 ng/ml PMA",blocked the optophoretic shift in escape velocity
same,Escape velocity Ave.,[7]; 200 ng/ml bisindolymaleimide + 10 ng/ml PMA,14.5 μm/sec
same,Escape velocity Ave.,"[7]; 200 ng/ml bisindolymaleimide, no PMA",14.0 μm/sec
"O=C([O-])c1ccccc1O.[Na+] [Sodium Salicylate, Sodium salicylate]",shift in escape velocities (FIG. 37),"[8]; 5 mM and 20 mM, 5 and 24 hours",slight but statistically significant shift in escape velocities
same,Escape velocity Ave.,"[8]; 5 mM, 5 hours",14.1
same,Escape velocity Ave.,"[8]; 5 mM, 24 hours",15.2
same,Escape velocity Ave.,"[8]; 5 mM, 47 hours",13.7
same,Escape velocity Ave.,"[8]; 20 mM, 5 hours",13.3
same,Escape velocity Ave.,"[8]; 20 mM, 24 hours",16.0
same,cell viability (trypan blue),"[8]; 20 mM, 47 hours",all cells were dead
Cc1oncc1C(=O)Nc1ccc(C(F)(F)F)cc1 [Leflunomide],effect on TNF-caused increase in escape velocity (FIG. 36),[9],mitigate the increase in escape velocity caused by TNF
"Cc1ccc(NC(=O)c2ccc(CN3CCN(C)CC3)cc2)cc1Nc1nccc(-c2cccnc2)n1 [Gleevec, imatinib mesylate]",escape velocity as compared to non-treated cells (FIG. 40),[10],significantly lower escape velocity
same,mean travel distances as compared to non-treated controls (FIG. 41),[11],lower mean travel distances
CC[C@@]1(O)C(=O)OCc2c1cc1n(c2=O)Cc2cc3c(CN(C)C)c(O)ccc3nc2-1 [topotecan],shift in escape velocity as compared to the camptothecin-treated cells (FIG. 54),"[12]; 4 μg/ml, four hours",larger shift in escape velocity
same,cellular debris,"[12]; 10 μM and 20 μM topotecan, six hours",a significant amount of cellular debris was present
same,cell death,"[12]; 10 μM topotecan, 24 hour",virtually all of the treated U937 cells were dead
same,dead or necrotic cells,"[12]; 2.5, 5 and 10 μM topotecan, 4 hour",not a significant number of dead or necrotic cells
same,less sensitive than parental cell line CCRF-CEM,[13],970 fold
same,decrease in escape velocity as compared to the CEM/C2 cells (FIG. 67),[14],larger decrease in escape velocity
